Experimental data reported in US20260109721A1, “IONIZABLE CATIONIC LIPIDS INCORPORATING SILICON: SYNTHESIS AND LNP FORMULATION” (priority 2023, published 2026).

Tests used:
[1] = system: HeLa cells; assay: Transfection efficiency with GFP mRNA (Method B); type: cell-based; details: 24 h, GFP fluorescence
Method: (§1) The synthesized lipids were tested in term of in vitro transfection efficacy and toxicity on HeLa cells. In order to perform the mentioned biological tests, appropriate LNPs had to be formulated from the synthesized lipids. The formulation technique was different in Method A and B. The particle size, polydispersity index (PDI) and zeta potential of resulting LNPs were determined by means of Dynamic Light Scattering technique (DLS). Prior to biological testing the encapsulation efficiency (EE) of the loaded LNPs was determined by using RiboGreen RNA assay. In case of Method A Luc mRNA while in case of Method B GFP mRNA was transfected into the cells. In parallel with the transfection experiments, toxicity of the investigated LNPs was determined, in case of Method A resazurin assay while in case of Method B MTT assay was used. Additionally, the toxicity of the lipids was investigated on HepG2 cells and IC50 values were determined.
(§2) In 1.5 mL eppendorf: • a) Place 2.9 uL of 0.33 ug/uL mRNA solution into Eppendorf tube • b) Add 1.94 μL of supplied ethanolic solution of tested lipid and immediately mix by working pipette up-and-down several times (work the solution up and down several times before transferring to saturate pipette tip with ethanol vapors) • c) Incubate for 15 minutes. • d) Add 536 μL of MEM. Mix the solution by vortexing. • e) Incubate for 30 minutes.
• MEM (Sigma, cat #M5650-500 mL) • Fetal Bovine Serum, FBS (Sigma, cat #F7524-500 mL) • Solutions of the formulations (see above) • Dilutor: 10 mL MEM+0,036 mL ethanol • Phosphate buffered saline, PBS
• 1. Fill the edge wells of a 96-well plate with 100 μL media. • 2. Plate 10,000 HeLa cells per well in 96 well plate. […] Total 60 wells should be seeded. Incubate in MEM+10% FBS at 37° C. in a humidified atmosphere with 5% CO2 for 24 h. • 3. Examine under the microscope. Confluency must be at or nearly 80%. • 4. Gently remove the media (aspirate). Place 50 μL of the following formulations: • a) 6 wells with dilutor—negative control • b) 6 wells with Lipofectamine-50—positive control. • c) 6 wells with Lipofectamine-6—secondary positive control • d) 6 wells per formulations—test samples. • 5. Incubate plate for 1 hours at 37° C. • 6. Add 50 μL of MEM+20% FBS (which will become 10% upon dilution). • 7. Place plates into the incubator at 37° C. in a humidified atmosphere with 5% CO2 for 23 h (total 24 hours of incubation). • 8. After 24 h, aspirate the media without disturbing the cells. Gently wash cells with 100 μL of warm PBS. Aspirate PBS. • 9. Add 100 μL of fresh PBS into washed cells and read GFP fluorescence on the plate reader. • 10. This can be followed with viability assessment with the MTT assay. Cell Viability Assessment with MTT Assay (Method B)

[2] = system: HeLa cells; assay: Cell viability assessment with MTT assay (Method B); type: cell-based; details: 24 h
Method: as §1
• MEM (Sigma, cat #M5650-500 mL) • Fetal Bovine Serum, FBS (Sigma, cat #F7524-500 mL) • Thiazolyl Blue Tetrazolium Bromide, MTT (TCI Chemicals, cat #D0801-5G) • Solutions of the formulations (see “Preparation of GFP mRNA loaded LNP” protocol) • Dilutor: 10 mL MEM+0,036 mL ethanol • Phosphate buffered saline, PBS
• 1. Plate 10,000 HeLa cells per well in 96 well plate. […] Total 60 wells should be seeded. Incubate in MEM+10% FBS at 37° C. in a humidified atmosphere with 5% CO2 for 24 h. • 2. Examine under the microscope. Confluency must be at or nearly 80%. • 3. Gently remove the media (aspirate). Place 50 μL of the following formulations: • a) 6 wells with dilutor—negative control • b) 6 wells with Lipofectamine-50—positive control. • c) 6 wells with Lipofectamine-6—secondary positive control • d) 6 wells per formulations—test samples. • 4. Incubate plate for 1 hours at 37° C. • 5. Add 50 μL of MEM+20% FBS (which will become 10% upon dilution). • 6. […] Measure the absorbance of each well at 570 nm using a microplate reader. Measure the absorbance at a reference wavelength of 650 nm to subtract background absorbance. • 11. […]

[3] = LNP size and size distribution by Dynamic Light Scattering (Method B); type: physicochemical; details: DLS; for Size (nm): Z-average
Method: • 0.33 ug/uL mRNA solution in DEPC-treated water (RiboPro, Off-The-Shelf mRNA; eGFP with Cap 1) • 0.04 ug/uL mRNA solution in DEPC-treated water (RiboPro, Off-The-Shelf mRNA; eGFP with Cap 1)
as §2
• a) Place 45 μL Lipofectamine-50 solution into 1.5 mL sterile Eppendorf tube. • b) Add 315 μL of MEM. Vortex. • c) Incubate 15 min. Size and Size Distribution Measurements with Dynamic Light Scattering • 1. Transfer 100 μL of freshly prepared LNP formulation in DLS micro cuvette. • 2. Place the formulation into Zetasizer pre-heated to 37 C. • 3. Equilibrate the sample for 5 minutes. • 4. Perform the size measurement in triplicate (settings: position and gain auto). • 5. For QC examine correlation curve to have no disturbances. Report Z-average and PDI based on cumulants fit. Transfection Efficiency with GFP mRNA (Method B)

[4] = Apparent pKa in LNPs by TNS titration; type: physicochemical; details: lipid nanoparticles (LNPs)
Method: In the case of some lipids, the apparent pKa in LNPs was determined by using TNS titration based on the method described: Angew Chem Int Ed Engl. 2012, 51 (34), 8529-8533, doi: 10.1002/anie.201203263).

Structure (SMILES)	Transfection 89 ng mRNA/well [1]	Cell Viability % [2] [%]	PDI [3]	Size (nm) [3] [nm]	pKa [4]
CCCCCCCCC(CCCCCC)C(=O)OCCCCCCN(CCCCO)CCCCCCOC(=O)C(CCCCCC)CCCCCCCC (stereo not shown) [ALC-0315, reference compound]	15892.1	–	–	–	–
CCCCC/C=C\C/C=C\CCCCCCCCOC(CCCCCCC/C=C\C/C=C\CCCCC)O[Si](C)(C)OCCCCCCN(CCO)CCO (stereo not shown) [Example 48, (23Z,26Z)-13-((8Z,11Z)-heptadeca-8,11-dien-1-yl)-3-(2-hydroxyethyl)-11,11-dimethyl-10,12,14-trioxa-3-aza-11-siladotriaconta-23,26-dien-1-ol]	93448.3	51.5	0.128	180	7.73
CCCCC/C=C\C/C=C\CCCCCCCCOC(CCCCCCC/C=C\C/C=C\CCCCC)O[Si](C)(C)OCCCCCCN(C)CCO (stereo not shown) [Example 56, (23Z,26Z)-13-((8Z,11Z)-heptadeca-8,11-dien-1-yl)-3,11,11-trimethyl-10,12,14-trioxa-3-aza-11-siladotriaconta-23,26-dien-1-ol]	78375.2	40.2	0.092	185	7.21
CCCCC/C=C\C/C=C\CCCCCCCCOC(CCCCCCC/C=C\C/C=C\CCCCC)O[Si](C)(C)OCCCCCCN1CCN(CCO)CC1 (stereo not shown) [Example 58, 2-(4-((20Z,23Z)-10-((8Z,11Z)-heptadeca-8,11-dien-1-yl)-8,8-dimethyl-7,9,11-trioxa-8-silanonacosa-20,23-dien-1-yl)piperazin-1-yl)ethan-1-ol]	50019.2	52.1	–	–	–
